PMC3845904 (Chemical research in toxicology, 2009)
Several values for one entry are separate records, joined by “and”; a condition that tells them apart may be missing. Identical values can stand only once.

Columns and labels:
[1] = biological target: T1, human P450 1B1 (Homo sapiens, UniProt Q16678); test: Spectral binding titration; settings: for Reverse Type I spectra ΔAmax/Ks (magnitude of spectral binding) / Reverse Type I spectra ΔAmax: purified P450 1B1 1.0 μM, ND = not detected at 100 μM; for Reverse Type I spectra ΔAmax: means ± SEs
T1 sequence (Q16678 1-543): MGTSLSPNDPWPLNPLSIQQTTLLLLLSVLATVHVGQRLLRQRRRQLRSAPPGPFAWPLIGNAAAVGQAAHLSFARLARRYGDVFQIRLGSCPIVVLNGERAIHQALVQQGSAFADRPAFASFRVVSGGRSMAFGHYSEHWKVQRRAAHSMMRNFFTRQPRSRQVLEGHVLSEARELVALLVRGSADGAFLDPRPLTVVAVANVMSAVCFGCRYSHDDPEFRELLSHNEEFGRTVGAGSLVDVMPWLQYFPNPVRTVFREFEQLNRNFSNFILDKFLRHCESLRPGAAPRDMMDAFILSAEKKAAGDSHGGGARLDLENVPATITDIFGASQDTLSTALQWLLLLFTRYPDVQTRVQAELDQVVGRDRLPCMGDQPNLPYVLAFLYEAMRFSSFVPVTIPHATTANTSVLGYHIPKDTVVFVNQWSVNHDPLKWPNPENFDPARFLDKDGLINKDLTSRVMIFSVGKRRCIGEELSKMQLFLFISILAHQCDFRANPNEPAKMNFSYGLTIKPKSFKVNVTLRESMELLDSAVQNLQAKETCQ

[2] = biological target: T1, human P450 1B1; test: biochemical
[3] = biological target: P450 1A2 (Homo sapiens, UniProt P05177); test: Inhibition of EROD activity catalyzed by P450 1A2; assay type: biochemical; settings: Figure 4
P450 1A2, sequence (P05177 whole entry): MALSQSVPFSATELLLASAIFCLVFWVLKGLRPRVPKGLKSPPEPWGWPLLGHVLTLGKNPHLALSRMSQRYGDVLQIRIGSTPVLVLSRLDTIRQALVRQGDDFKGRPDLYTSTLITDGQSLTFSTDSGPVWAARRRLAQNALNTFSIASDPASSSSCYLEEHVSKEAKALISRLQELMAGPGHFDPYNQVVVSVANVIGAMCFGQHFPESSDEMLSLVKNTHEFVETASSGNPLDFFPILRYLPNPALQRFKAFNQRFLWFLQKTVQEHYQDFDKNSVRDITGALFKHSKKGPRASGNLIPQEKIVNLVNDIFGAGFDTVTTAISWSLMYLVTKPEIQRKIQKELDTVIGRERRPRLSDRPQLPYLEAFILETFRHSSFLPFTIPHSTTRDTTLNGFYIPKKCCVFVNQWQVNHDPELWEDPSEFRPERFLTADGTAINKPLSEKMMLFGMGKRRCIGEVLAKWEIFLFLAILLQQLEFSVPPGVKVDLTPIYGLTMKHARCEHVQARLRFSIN

| IC50 [2] | Kd [1] [nM] | inhibition of P450 1A2 EROD (in words) [3] | Reverse Type I spectra ΔAmax ([1]; listed as Flavone) | Compound | Reverse Type I spectra ΔAmax/Ks (magnitude of spectral binding) [1] | Reverse Type I spectra ΔAmax [1] | spectral interaction with P450 1B1 (in words) ([1]; up to 100 μM) |
| --- | --- | --- | --- | --- | --- | --- | --- |
| 260 ± 30 nM | 24000 ± 3200 |  |  | COc1ccc(-c2cc(=O)c3ccccc3o2)cc1OC [34DMF, 3′,4′-dimethoxyflavone] | 0.0021 | 0.051 ± 0.003 |  |
| 110 ± 20 nM | 20000 ± 3000 |  |  | COc1cccc(-c2cc(=O)c3c(O)cc(O)cc3o2)c1 [3M57DHF, 3′-methoxy-5,7-dihydroxyflavone] | 0.0037 | 0.075 ± 0.008 |  |
|  |  |  |  | COc1cc(C=Cc2ccc(OC)cc2OC)cc(OC)c1 [TMS, 2,4,3′,5′-tetramethoxystilbene, reference compound] | 0.0110 |  |  |
|  |  |  |  | C#CCOc1ccc(-c2ccc(OCC#C)cc2)cc1 [44BDPE, 4,4-biphenyl dipropargyl ether] | 0.0013 | 0.031 ± 0.002 |  |
| 320 ± 60 nM | 56000 ± 8000 |  |  | COc1ccccc1-c1cc(=O)c2ccccc2o1 [2MF, 2′-methoxyflavone] | 0.0013 | 0.070 ± 0.005 |  |
| 830 ± 140 nM | 21000 ± 1100 |  |  | Oc1cc(O)cc(/C=C/c2ccc(O)c(O)c2)c1 [Piceatannol (Pice), Piceatannol, reference compound] | 0.0016 | 0.034 ± 0.001 |  |
| 1200 ± 200 nM |  |  |  | C#Cc1ccc2ccccc2c1 [2EN, 2-ethynylnaphthalene] | 0.0033 | 0.049 ± 0.002 |  |
| 240 ± 20 nM | 64000 ± 10000 |  |  | COc1ccccc1-c1cc(=O)c2c(O)cc(O)cc2o1 [2M57DHF, 2′-methoxy-5,7-dihydroxyflavone] | 0.0016 | 0.100 ± 0.011 |  |
|  |  |  |  | C#CCOc1ccc(-c2ccccc2)cc1 [4BPE, 4-biphenyl propargyl ether] | 0.0007 | 0.056 ± 0.010 |  |
| > 100000 nM |  |  |  | COc1ccccc1-c1cc(=O)c2ccc(O)c(O)c2o1 [2M78DHF, 2′-methoxy-7,8-dihydroxyflavone] |  |  | did not show any detectable spectral interaction |
| ~26000 nM and 26000 nM |  | weak |  | c1ccc2ccccc2c1 [naphthalene, reference compound] |  |  |  |
| 150 ± 20 nM | 51000 ± 4100 |  |  | COc1cccc(-c2cc(=O)c3ccccc3o2)c1 [3MF, 3′-methoxyflavone] | 0.0006 | 0.029 ± 0.001 |  |
|  |  |  | 0.026 | O=c1cc(-c2ccccc2)oc2ccccc12 [flavone, reference compound] | 0.0006 | 0.026 ± 0.002 |  |
|  |  |  |  | C#CCOCc1ccc(-c2ccccc2)cc1 [4BMPE, 4-biphenyl methyl propargyl ether] | 0.0055 | 0.071 ± 0.002 |  |
|  |  |  |  | O=c1cc(-c2ccccc2)oc2c1ccc1ccccc12 [ANF, α-naphthoflavone, reference compound] | 0.0061 | 0.073 ± 0.007 |  |
|  |  |  |  | C#CCOc1ccccc1-c1ccccc1 [2BPE, 2-biphenyl propargyl ether] | 0.0010 | 0.110 ± 0.009 |  |
|  |  |  |  | C#CCOCc1ccccc1-c1ccccc1 [2BMPE, 2-biphenyl methyl propargyl ether] | 0.0009 | 0.130 ± 0.009 |  |
| 230 ± 30 nM | 66000 ± 11000 |  |  | COc1ccc(-c2cc(=O)c3ccccc3o2)cc1 [4MF, 4′-methoxyflavone] |  |  |  |
| 19000 ± 2300 nM | 190000 ± 17000 |  |  | COc1ccc(-c2cc(=O)c3ccc(O)c(O)c3o2)cc1OC [34DM78DHF, 3′,4′-dimethoxy-7,8-dihydroxyflavone] | 0.0003 | 0.053 ± 0.003 |  |
| 2200 ± 300 nM |  |  |  | C#Cc1ccc(-c2ccccc2)cc1 [4EB, 4-ethynylbiphenyl] | 0.0030 | 0.023 ± 0.001 |  |
| 4.1 ± 0.4 nM | 13000 ± 1200 |  |  | O=c1cc(-c2ccccc2)oc2ccc3ccccc3c12 [BNF, β–naphthoflavone, reference compound] | 0.0061 | 0.079 ± 0.009 |  |
|  | 2000 ± 300 |  |  | COc1ccc(-c2cc(=O)c3c(O)cc(O)cc3o2)cc1OC [34DM57DHF, 3′,4′-dimethoxy-5,7-dihydroxyflavone] | 0.0180 | 0.037 ± 0.002 |  |
| 1100 ± 200 nM | 56000 ± 15000 |  |  | COc1ccc(-c2cc(=O)c3ccc(O)c(O)c3o2)cc1 [4M78DHF] | 0.0013 | 0.073 ± 0.009 |  |
| 3700 ± 500 nM | 140000 ± 15000 |  |  | COc1cccc(-c2cc(=O)c3ccc(O)c(O)c3o2)c1 [3M78DHF, 3′-methoxy-7,8-dihydroxyflavone] | 0.0003 | 0.044 ± 0.005 |  |
|  |  |  |  | C#CCOc1ccccc1-c1ccccc1OCC#C [22BDPE, 2,2-biphenyl dipropagyl ether] | 0.0006 | 0.018 ± 0.001 |  |
| 1200 ± 200 nM | 28000 ± 3300 |  |  | Oc1ccc(/C=C/c2cc(O)cc(O)c2)cc1 [resveratrol (Res), resveratrol, reference compound] | 0.0012 | 0.034 ± 0.004 |  |
|  |  |  |  | C[C@]12CC[C@@H]3c4ccc(O)cc4CC[C@H]3[C@@H]1CC[C@@H]2O [E2, 17β-estradiol, reference compound] | 0.0005 | 0.039 ± 0.007 |  |

| Compound | IC50 [2] | Kd [1] [nM] | inhibition of P450 1A2 EROD (in words) [3] | Reverse Type I spectra ΔAmax ([1]; listed as Flavone) | Reverse Type I spectra ΔAmax/Ks (magnitude of spectral binding) [1] | Reverse Type I spectra ΔAmax [1] | spectral interaction with P450 1B1 (in words) ([1]; up to 100 μM) |
| --- | --- | --- | --- | --- | --- | --- | --- |
| C#Cc1ccc2ccc3ccccc3c2c1 [3EPh, 3-ethynylphenanthrene] | 160 ± 20 nM |  |  |  | 0.0237 | 0.071 ± 0.001 |  |
| C#Cc1cc2ccccc2c2ccccc12 [9EPh, 9-ethynylphenanthrene] | 120 ± 10 nM |  |  |  | 0.0197 | 0.071 ± 0.004 |  |
| CC#Cc1cc2ccccc2c2ccccc12 [9PPh, 9-(1-propynyl)phenanthrene] | 160 ± 30 nM |  |  |  | 0.0153 | 0.049 ± 0.002 |  |
| c1ccc2c(c1)ccc1ccccc12 [Phenanthrene, phenanthrene, reference compound] | 510 ± 100 nM | 14000 ± 1700 |  |  | 0.0031 | 0.044 ± 0.002 |  |
| CC#Cc1ccc2c(ccc3ccccc32)c1 [2PPh, 2-(1-propynyl)phenanthrene] | 150 ± 20 nM |  |  |  | 0.0305 | 0.067 ± 0.005 |  |
| C=Cc1ccc2ccc3cccc4ccc1c2c34 [1VP, 1-vinylpyrene] | 150 ± 20 nM | 4400 ± 300 |  |  | 0.0209 | 0.092 ± 0.003 |  |
| C#Cc1cc2cccc3ccc4cccc1c4c32 [4EP, 4-ethynylpyrene] | 170 ± 30 nM |  |  |  | 0.0130 | 0.052 ± 0.004 |  |
| c1ccc(-c2ccccc2)cc1 [biphenyl, reference compound] | 19000 ± 2300 nM | 140000 ± 19000 |  |  | 0.0003 | 0.037 ± 0.008 |  |
| C#Cc1cc2ccc3cccc4ccc(c1)c2c34 [2EP, 2-ethynylpyrene] | 38 ± 4 nM |  |  |  | 0.0209 | 0.071 ± 0.001 |  |
| C#Cc1ccc2c(ccc3ccccc32)c1 [2EPh, 2-ethynylphenanthrene] | 210 ± 30 nM |  |  |  | 0.0190 | 0.080 ± 0.004 |  |
| C#Cc1ccc2ccc3cccc4ccc1c2c34 [1EP, 1-ethynylpyrene] | 36 ± 5 nM |  |  |  | 0.0169 | 0.049 ± 0.005 |  |
| CC#Cc1ccc2ccc3cccc4ccc1c2c34 [1PP, 1-(1-propynyl)pyrene] | 45 ± 5 nM |  |  |  | 0.0156 | 0.042 ± 0.002 |  |
| CC#Cc1ccc2ccc3ccccc3c2c1 [3PPh, 3-(1-propynyl)phenanthrene] | 67 ± 8 nM |  |  |  | 0.0194 | 0.060 ± 0.006 |  |
| c1cc2ccc3cccc4ccc(c1)c2c34 [pyrene, reference compound] | 25 ± 3 nM | 1300 ± 100 |  |  | 0.0338 | 0.044 ± 0.001 |  |
